Laboratory results taken from PMC6193938, “Characterization of a novel AICARFT inhibitor which potently elevates ZMP and has anti-tumor activity in murine models” (Scientific Reports, 2018).
Read-outs that look alike come from different tables or passages of the source.

Columns and labels:
CDK7 = target: T1, CDK7 (Homo sapiens, UniProt P50613); assay: CEREP protein kinase assay; format: biochemical
T1 construct: purchased CEREP Panlabs (Eurofins)

[1] = test system: AMPK T172 phosphorylation in MDA-MB-231met2 tumors; assay: Western analysis of tumors; format: in vivo, mouse; conditions: 30 and 60 mg/kg BIDx22 PO
Experimental: (§1) The levels of total AMPKα and P70S6K are also shown. […] The levels of total AMPKα are also shown. […] Full images and the croppings used in this figure are shown in Supplemental Figures S14–S21.
(§2) Antibodies were purchased as follows: pAMPK Thr172 (Cell Signaling #2535), p-p70S6 Thr389 (Cell Signaling #9205), total p70S6 (Cell Signaling #2708), total AMPKα (Cell Signaling #2793) and Actin (Sigma #A5441). Frozen tumor samples were lysed with 500 µL ice cold lysis buffer plus Halt protease inhibitor (ThermoFisher #78430) using a Power Gen 125 tissue grinder (Fisher Scientific). Western blots were run as described in the supplemental material.
(§3) For the in vivo study with MDA-MB-231met2 (Figure 6A) 40 ug of total protein was resolved on a 10% Tris HCl Criterion XT precast gel (BioRad) at 100 V for 90 minutes. Transfer electrophoresed proteins to a 0.2 µm nitrocellulose membrane using Trans Blot Turbo System (BioRad). Block membranes for 1 hr at RT in 5% skim milk. Probe overnight 4°C for primary antibodies. Blots were washed 3-5 min in 20 mL TBS-0.1% Tween-20. Apply appropriate secondary antibody for 1-3 hours RT. Wash blots 3 x 5 min in 20 mL TBS-0.1% Tween20 and develop signal using Super Signal Western Femto kit (Thermo) on Image Reader LAS-4000 (Fuji Film Life Science).

[2] = test system: P70S6K T389 phosphorylation in MDA-MB-231met2 tumors; assay: Western analysis of tumors; format: in vivo, mouse; conditions: 30 and 60 mg/kg BIDx22 PO
Experimental: as §1, §2, §3

FAK = target: T2, FAK (Homo sapiens, UniProt Q05397); assay: CEREP protein kinase assay; format: biochemical
T2 construct: purchased CEREP Panlabs (Eurofins)
T2 sequence (Q05397 whole entry): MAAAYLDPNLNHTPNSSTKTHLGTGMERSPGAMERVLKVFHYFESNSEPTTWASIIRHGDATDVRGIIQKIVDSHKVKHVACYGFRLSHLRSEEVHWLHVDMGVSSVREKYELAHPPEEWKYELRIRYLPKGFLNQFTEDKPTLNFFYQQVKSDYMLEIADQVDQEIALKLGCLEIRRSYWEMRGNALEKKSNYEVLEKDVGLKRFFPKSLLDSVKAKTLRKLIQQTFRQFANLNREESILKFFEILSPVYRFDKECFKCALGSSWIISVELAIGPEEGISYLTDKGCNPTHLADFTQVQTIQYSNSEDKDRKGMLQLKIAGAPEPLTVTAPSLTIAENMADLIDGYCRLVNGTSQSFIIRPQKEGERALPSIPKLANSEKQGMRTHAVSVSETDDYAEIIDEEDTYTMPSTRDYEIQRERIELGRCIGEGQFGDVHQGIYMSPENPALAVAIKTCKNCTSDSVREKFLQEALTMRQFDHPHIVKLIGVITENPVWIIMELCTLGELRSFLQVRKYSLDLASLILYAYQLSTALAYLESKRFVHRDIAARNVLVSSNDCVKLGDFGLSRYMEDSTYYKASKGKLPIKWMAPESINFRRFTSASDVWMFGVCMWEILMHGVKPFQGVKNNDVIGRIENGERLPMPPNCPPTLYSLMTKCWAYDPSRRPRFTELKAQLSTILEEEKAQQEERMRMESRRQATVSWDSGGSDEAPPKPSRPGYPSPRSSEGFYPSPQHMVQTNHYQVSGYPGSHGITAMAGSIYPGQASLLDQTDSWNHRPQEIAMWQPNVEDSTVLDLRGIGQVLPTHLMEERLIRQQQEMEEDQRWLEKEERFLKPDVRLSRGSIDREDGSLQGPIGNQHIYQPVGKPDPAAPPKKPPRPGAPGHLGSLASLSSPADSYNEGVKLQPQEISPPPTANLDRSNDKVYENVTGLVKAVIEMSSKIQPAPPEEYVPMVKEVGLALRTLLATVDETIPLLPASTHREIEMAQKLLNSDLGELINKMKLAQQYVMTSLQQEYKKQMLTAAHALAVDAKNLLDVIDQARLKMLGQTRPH

P38a = target: T3, P38a (Homo sapiens, UniProt Q16539); assay: CEREP protein kinase assay; format: biochemical
T3 construct: purchased CEREP Panlabs (Eurofins)
T3 sequence (Q16539 whole entry): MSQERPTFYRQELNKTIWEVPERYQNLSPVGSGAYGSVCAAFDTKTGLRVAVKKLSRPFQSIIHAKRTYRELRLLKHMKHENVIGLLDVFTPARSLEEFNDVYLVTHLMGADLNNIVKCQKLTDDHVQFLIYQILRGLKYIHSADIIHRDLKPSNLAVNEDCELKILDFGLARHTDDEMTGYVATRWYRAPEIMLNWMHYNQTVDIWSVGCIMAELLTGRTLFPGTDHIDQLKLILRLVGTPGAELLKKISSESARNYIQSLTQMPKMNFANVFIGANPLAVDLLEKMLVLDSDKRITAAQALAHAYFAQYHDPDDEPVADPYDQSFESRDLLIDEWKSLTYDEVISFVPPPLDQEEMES

A101D (melenoma) = assay: MS detection of ZMP in cultured cells; format: cell-based; conditions: Homo sapiens, low folate RPMI media, 16 hours
Experimental: (§4) Cells lines were acquired from cell banks, see supplemental material, grown using the cell banks recommended culture conditions (Supplemental Table 3). In some experiments noted “low folate” the cells were washed and grown in folate free RPMI-1640 media (Gibco #27016-021) supplemented with 5 ml 1 M Hepes, 5 ml 100 mM Na pyruvate, 2.5 mg/ml glucose and 10% defined FBS (Hyclone #SH30070) per 500 mL media for 5–7 days to deplete intracellular folate levels prior to the start of the experiment. Where noted, cells were maintained in complete “high folate” RPMI-1640 media (ATCC #30-2001) with 10% defined FBS to contrast with the low folate conditions.
(§5) ZMP was detected in cultured cells via mass spec analysis. Cells were plated in 96-well plates at 25,000 cells per well in 100 µL with either high or low folate RPMI media and incubated overnight at 37 °C with 5% CO2. Cells were treated with inhibitor compounds for 16 hours, 0.5% DMSO final concentration. Growth media was decanted and cells were lysed for 10 min at room temperature with 50 µL per well of 1x Sure Fire Lysis buffer (Perkin Elmer, SureFire kit component). Aliquots (40 µL) of standard or sample were combined in a deep 96-well plate with 160 µL of internal standard solution containing ^13C5-ZMP (custom synthesis) and ^13C5-AICAr (custom synthesis) at 100 ng/mL in 40 mM ammonium acetate, pH 4. 400 µL of dichloromethane was added to each sample. Samples were sealed, vortexed for 5 minutes, and placed in the refrigerator for at least 30 minutes. The samples were centrifuged at 4 °C for 10 minutes at 16,600 g. 75 µL of the aqueous layer were transferred to a clean 96-well plate and seal prior to analysis.
(§6) The LC-MS method utilizes a Shimadzu Prominence 20 A HPLC system connected to an AB Sciex 5500™ or an AB Sciex 6500™ triple quadrupole mass spectrometer. Extracted samples were separated using a Thermo Hypercarb™ Javelin guard column (2.1 × 20 mm, 5 µm) with an injection volume of 15 µL and a flow rate of 1 mL/minute.
(§7) ZMP, AICAr and dUMP were detected using positive ion TurboIonSpray® multiple reaction monitoring mode and the data were processed with AB Sciex MultiQuant™. Back-calculated ZMP concentrations were fit to a four-parameter logistic equation using ACTIVITYBASE 4.0 to determine EC50 values relative to the maximum observed metabolite levels.

NCI-H1437 (lung) = assay: MS detection of ZMP in cultured cells; format: cell-based; conditions: Homo sapiens, 16 hours
Experimental: as §4, §5, §6, §7

NCI-H1993 (lung) = assay: MS detection of ZMP in cultured cells; format: cell-based; conditions: Homo sapiens, low folate RPMI media, 16 hours
Experimental: as §4, §5, §6, §7

MIA PaCa-2 (pancreas) = assay: MS detection of ZMP in cultured cells; format: cell-based; conditions: Homo sapiens, 16 hours
Experimental: as §4, §5, §6, §7

A549 (lung) = assay: MS detection of ZMP in cultured cells; format: cell-based; conditions: Homo sapiens, 16 hours
Experimental: as §4, §5, §6, §7

A9 murine cell line = assay: In vitro proliferation assay (Alamar Blue); format: cell-based
Experimental: as §4
Cells were cultured using recommended culture conditions unless noted otherwise (Supplemental Table 3). Cells were plated, dosed with compound and incubated at 37 °C for approximately 2 doubling times as determined for each cell line. Cell Titer Glo (Promega) assay was used to measure proliferation according to manufacturer’s recommendations by measuring luminescence with Flexstation3 (Molecular Devices) with 500 ms integration time. […]
For a limited number of cell lines, compound dosing was performed under high or low folate conditions with cell viability being determined with Alamar Blue rather than an ATP dependent assay. […] The % inhibition for each sample was calculated and fit as described above.

EPHA5 = target: T4, EPHA5 (Homo sapiens, UniProt P54756); assay: CEREP protein kinase assay; format: biochemical
T4 construct: purchased CEREP Panlabs (Eurofins)
T4 sequence (P54756 25-1037): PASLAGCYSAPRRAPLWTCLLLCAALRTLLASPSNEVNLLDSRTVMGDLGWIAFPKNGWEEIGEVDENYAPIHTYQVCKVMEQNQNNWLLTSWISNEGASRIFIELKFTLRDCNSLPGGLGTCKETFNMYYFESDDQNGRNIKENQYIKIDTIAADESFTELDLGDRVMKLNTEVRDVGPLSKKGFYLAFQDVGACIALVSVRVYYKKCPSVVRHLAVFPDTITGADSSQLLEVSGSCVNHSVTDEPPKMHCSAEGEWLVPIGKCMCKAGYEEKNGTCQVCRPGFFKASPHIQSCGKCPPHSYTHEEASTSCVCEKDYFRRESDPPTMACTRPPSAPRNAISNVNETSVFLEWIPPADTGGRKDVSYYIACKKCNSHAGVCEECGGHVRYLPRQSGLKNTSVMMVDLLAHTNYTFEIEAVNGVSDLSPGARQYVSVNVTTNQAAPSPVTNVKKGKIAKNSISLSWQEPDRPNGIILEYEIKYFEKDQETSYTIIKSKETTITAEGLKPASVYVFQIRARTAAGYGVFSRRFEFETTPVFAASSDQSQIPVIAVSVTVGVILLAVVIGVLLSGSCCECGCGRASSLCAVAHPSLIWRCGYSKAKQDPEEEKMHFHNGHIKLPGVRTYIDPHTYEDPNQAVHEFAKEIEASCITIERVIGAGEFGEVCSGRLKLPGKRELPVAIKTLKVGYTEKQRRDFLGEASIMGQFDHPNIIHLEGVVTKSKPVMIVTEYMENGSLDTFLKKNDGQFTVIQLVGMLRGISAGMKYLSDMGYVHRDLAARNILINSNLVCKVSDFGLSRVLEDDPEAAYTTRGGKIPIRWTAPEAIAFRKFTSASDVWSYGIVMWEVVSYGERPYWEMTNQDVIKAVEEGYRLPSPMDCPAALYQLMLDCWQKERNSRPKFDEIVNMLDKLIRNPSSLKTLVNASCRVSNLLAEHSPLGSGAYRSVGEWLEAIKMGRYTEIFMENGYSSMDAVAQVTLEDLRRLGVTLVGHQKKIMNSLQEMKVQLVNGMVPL

TYK2 = target: T5, TYK2 (Homo sapiens, UniProt P29597); assay: CEREP protein kinase assay; format: biochemical
T5 construct: purchased CEREP Panlabs (Eurofins)
T5 sequence (P29597 whole entry): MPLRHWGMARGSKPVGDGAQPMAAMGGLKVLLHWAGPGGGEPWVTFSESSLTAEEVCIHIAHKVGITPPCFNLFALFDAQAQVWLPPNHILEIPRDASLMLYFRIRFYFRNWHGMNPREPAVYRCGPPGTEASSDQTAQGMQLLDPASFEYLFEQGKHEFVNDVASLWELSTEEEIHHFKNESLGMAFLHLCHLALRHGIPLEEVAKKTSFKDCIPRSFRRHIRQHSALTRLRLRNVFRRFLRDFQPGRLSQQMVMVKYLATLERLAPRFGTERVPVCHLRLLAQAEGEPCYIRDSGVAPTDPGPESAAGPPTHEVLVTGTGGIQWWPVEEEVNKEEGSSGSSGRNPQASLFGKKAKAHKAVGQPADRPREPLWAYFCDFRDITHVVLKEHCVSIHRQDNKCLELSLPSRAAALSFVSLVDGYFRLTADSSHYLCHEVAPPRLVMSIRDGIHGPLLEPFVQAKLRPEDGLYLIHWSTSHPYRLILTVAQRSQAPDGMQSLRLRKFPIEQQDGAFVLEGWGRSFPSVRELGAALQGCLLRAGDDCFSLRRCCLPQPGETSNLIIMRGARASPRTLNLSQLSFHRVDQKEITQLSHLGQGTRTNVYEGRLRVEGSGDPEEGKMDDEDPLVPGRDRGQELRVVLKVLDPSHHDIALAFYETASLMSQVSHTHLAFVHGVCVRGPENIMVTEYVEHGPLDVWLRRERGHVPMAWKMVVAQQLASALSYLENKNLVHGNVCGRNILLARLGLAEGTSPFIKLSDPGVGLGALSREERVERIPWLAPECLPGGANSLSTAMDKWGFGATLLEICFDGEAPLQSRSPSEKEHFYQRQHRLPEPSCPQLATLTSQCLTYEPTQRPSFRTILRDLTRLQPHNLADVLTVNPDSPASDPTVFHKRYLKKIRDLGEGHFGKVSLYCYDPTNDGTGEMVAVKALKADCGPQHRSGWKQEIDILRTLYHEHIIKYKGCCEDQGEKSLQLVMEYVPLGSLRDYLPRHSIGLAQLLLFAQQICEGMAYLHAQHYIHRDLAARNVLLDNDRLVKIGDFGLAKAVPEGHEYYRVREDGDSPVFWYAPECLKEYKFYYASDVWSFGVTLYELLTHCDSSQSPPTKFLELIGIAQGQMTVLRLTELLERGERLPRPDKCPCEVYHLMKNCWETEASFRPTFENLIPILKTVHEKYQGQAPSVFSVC

[3] = RPMI media, read-out: ZMP EC50 Regular folate
[4] = low folate RPMI media, read-out: ZMP EC50 Low folate

T1 sequence (P50613 whole entry): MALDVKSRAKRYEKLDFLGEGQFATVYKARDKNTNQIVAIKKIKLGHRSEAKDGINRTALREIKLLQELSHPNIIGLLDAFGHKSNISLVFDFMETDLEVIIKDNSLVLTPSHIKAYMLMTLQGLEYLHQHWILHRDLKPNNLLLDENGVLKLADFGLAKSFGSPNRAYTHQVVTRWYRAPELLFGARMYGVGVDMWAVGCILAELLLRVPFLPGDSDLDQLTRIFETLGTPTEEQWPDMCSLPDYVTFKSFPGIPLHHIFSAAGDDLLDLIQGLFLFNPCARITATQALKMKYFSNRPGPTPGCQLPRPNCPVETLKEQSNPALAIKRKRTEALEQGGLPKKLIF
T1 sequence (P51946 whole entry partner): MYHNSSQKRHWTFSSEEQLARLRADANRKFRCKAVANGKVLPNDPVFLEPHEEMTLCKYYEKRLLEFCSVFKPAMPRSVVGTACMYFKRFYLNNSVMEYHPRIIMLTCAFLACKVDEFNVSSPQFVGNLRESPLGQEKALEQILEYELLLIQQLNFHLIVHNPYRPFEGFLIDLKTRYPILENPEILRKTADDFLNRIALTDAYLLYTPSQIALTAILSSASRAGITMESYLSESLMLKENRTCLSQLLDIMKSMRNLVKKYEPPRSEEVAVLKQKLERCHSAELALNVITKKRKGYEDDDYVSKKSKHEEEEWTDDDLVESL
T1 sequence (P51948 whole entry partner): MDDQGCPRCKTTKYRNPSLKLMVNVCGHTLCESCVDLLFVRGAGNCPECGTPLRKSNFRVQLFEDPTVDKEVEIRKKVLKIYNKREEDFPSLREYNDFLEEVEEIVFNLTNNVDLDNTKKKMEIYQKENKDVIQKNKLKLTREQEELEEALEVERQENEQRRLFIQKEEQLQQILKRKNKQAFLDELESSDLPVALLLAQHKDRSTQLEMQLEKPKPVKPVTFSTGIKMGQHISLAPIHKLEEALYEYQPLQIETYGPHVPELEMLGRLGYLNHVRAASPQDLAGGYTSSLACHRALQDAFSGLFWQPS

O=c1[nH]ccc2cc(F)c(NS(=O)(=O)c3ccc(N4CC[C@@H](O)C4)s3)cc12 [LSN3213128, N-(6-Fluoro-1-oxo-1,2-dihydroisoquinolin-7-yl)-5-[(3R)-3-hydroxypyrrolidin-1-yl]thiophene-2-sulfonamide]
inhibition at 0.2 µM (CDK7; @ 0.2 uM): -17%
inhibition at 2 µM (CDK7; @ 2 uM): 2.91%
inhibition at 20 µM (CDK7; @ 20 uM): 15%
AMPK T172 phosphorylation levels in vivo [1]: remained elevated
P70S6K T389 phosphorylation [2]: showed no change
inhibition at 0.2 µM (FAK; @ 0.2 uM): -12.7%
inhibition at 2 µM (FAK; @ 2 uM): -4.84%
inhibition at 20 µM (FAK; @ 20 uM): 40.1%
inhibition at 0.2 µM (P38a; @ 0.2 uM): -2.24%
inhibition at 2 µM (P38a; @ 2 uM): -2.52%
inhibition at 20 µM (P38a; @ 20 uM): 32.3%
EC50 (A101D (melenoma)): 2.3 nM
EC50 (NCI-H1437 (lung); [3]): 620 ± 354 nM
EC50 (NCI-H1437 (lung); [4]): 4.6 nM
EC50 (NCI-H1993 (lung)): 7.1 nM
EC50 (MIA PaCa-2 (pancreas); [3]): 1700 nM
EC50 (MIA PaCa-2 (pancreas); [4]): 4.2 nM
EC50 (A549 (lung); [3]): 3100 nM
EC50 (A549 (lung); [4]): 10 nM
IC50 (A9 murine cell line; Mus musculus, RPMI media): 230 nM
anti-proliferative effect on hypoxanthine supplementation (A9 murine cell line; hypoxanthine): not reversed
inhibition at 0.2 µM (EPHA5; @ 0.2 uM): 3.96%
inhibition at 2 µM (EPHA5; @ 2 uM): 9.58%
inhibition at 20 µM (EPHA5; @ 20 uM): 19.4%
inhibition at 0.2 µM (TYK2; @ 0.2 uM): -6.85%
inhibition at 2 µM (TYK2; @ 2 uM): -1.32%
inhibition at 20 µM (TYK2; @ 20 uM): 35.1%
